Results on four compounds are retold here after patent publication US10668043B2, “Potentiated antimicrobial agents” (priority 2014, dated 2020).

Converted amounts (≈) assume the structure as drawn. Like-named read-outs stand apart in the source and are kept apart here.

The term MIC denotes the lowest concentration found to suppress growth.

One assay concerns E. coli. As to the kind of experiment: etest on agar containing the booster. The class given is cell-based. The conditions noted are these: Escherichia coli, read-out: MIC. The source says:
(§1) The corresponding tests are made based on the usual MIC test: the etest® (Biomerieux) strip is deposited onto the surface of a seeded agar medium in which the booster has been incorporated. This test enables solvent effect risks, that is a possible interaction with the solvent used in vitro, to be minimised.
(§2) The control corresponds to the test made without cineol. A control is made in each solvent tested: distilled water, Tween/water and DMSO. • ED control=antibiotic alone in distilled water • DMSO control=antibiotic alone in DMSO • TE control=antibiotic alone in Tween® 80

The next assay deals with Pasteurella. Description: etest on agar containing the booster. The class given is cell-based.
Excerpt: The corresponding tests are made based on the usual MIC test: the etest® (Biomerieux) strip is deposited onto the surface of a seeded agar medium in which the booster has been incorporated.
as §2
Other e-tests are also made on Pasteurella.

A further assay deals with Strain 9003/BLSE. Description: Resistance: occurrence of resistant mutants. The conditions noted are these: 4 times the MIC; 48 h incubation; DMSO. The class given is cell-based. The procedure:
(§3) After 48 h incubation, the presence or absence of colonies likely to be resistant mutants is observed.

The subject of a further assay is Strain 10168/MRSA. Description: Resistance: occurrence of resistant mutants. It counts as cell-based, S. aureus. The conditions noted are these: 4 times the MIC; 48 h incubation; DMSO. The method, then:
as §3

In another assay the test system is Staphylococcus. As to the kind of experiment: etest on agar containing the booster. The class given is cell-based. As to conditions: MRSA 10178, read-out: MIC.
Excerpt: as §1, §2

Setting [1] is: Coli 8150, Cineol 1 mg Tween/water.
The mark [2] stands for this setting: Coli 8150, Cineol 4 mg Tween/water.
[3] abbreviates: Coli 8150, Cineol 16 mg Tween/water.
Setting [4] is: Coli 8150, DMSO control (antibiotic alone).
The mark [5] stands for this setting: Coli 8150, ED control (antibiotic alone in distilled water).
Setting [6] is: Coli 8150, Tween water control (antibiotic alone).
Where [7] appears, read: strain 14012, 5 mg cineol water.
Setting [8] is: strain 14012, 10 mg cineol DMSO.
Setting [9] is: strain 14012, 10 mg cineol water.
The mark [10] stands for this setting: strain 14014, 5 mg cineol water.
Where [11] appears, read: strain 14014, 10 mg cineol DMSO.
Where [12] appears, read: strain 14014, 10 mg cineol water.

Take `CO[C@@]1(NC(=O)Cc2cccs2)C(=O)N2C(C(=O)O)=C(COC(N)=O)CS[C@@H]21` [Cefoxitin]: the MIC in the assay on E. coli (Coli 8138 (penicillinase), Cineol 1 mg DMSO) came out at 4 µg/mL (≈ 9.36 µM); in the assay on E. coli (Coli 8138 (penicillinase), Cineol 1 mg Tween/water) it was 4 µg/mL (≈ 9.36 µM); with E. coli (Coli 8138 (penicillinase), Cineol 4 mg DMSO), 4 µg/mL (≈ 9.36 µM); in the assay on E. coli (Coli 8138 (penicillinase), Cineol 4 mg Tween/water), 3 µg/mL (≈ 7.02 µM); with E. coli (Coli 8138 (penicillinase), Cineol 16 mg DMSO) it was 4 µg/mL (≈ 9.36 µM); in the assay with E. coli (Coli 8138 (penicillinase), Cineol 16 mg Tween/water) it was 1 µg/mL (≈ 2.34 µM). In addition, the MIC turned out to be 6 µg/mL (≈ 14 µM) with E. coli (Coli 8138 (penicillinase), DMSO control (antibiotic alone)); 6 µg/mL (≈ 14 µM) in the assay with E. coli (Coli 8138 (penicillinase), ED control (antibiotic alone in distilled water)); 6 µg/mL (≈ 14 µM) in the assay with E. coli (Coli 8138 (penicillinase), Tween water control (antibiotic alone)); 8 µg/mL (≈ 18.7 µM) with E. coli (Coli 8150, Cineol 1 mg DMSO); 3 µg/mL (≈ 7.02 µM) in the assay on E. coli (setting [1]); 3 µg/mL (≈ 7.02 µM) with E. coli (Coli 8150, Cineol 4 mg DMSO). In addition, the MIC with E. coli (setting [2]) is 3 µg/mL (≈ 7.02 µM); with E. coli (Coli 8150, Cineol 16 mg DMSO), 3 µg/mL (≈ 7.02 µM); in the assay with E. coli (setting [3]) it was 1 µg/mL (≈ 2.34 µM); in the assay with E. coli (setting [4]) it was 8 µg/mL (≈ 18.7 µM); with E. coli (setting [5]) it was 3 µg/mL (≈ 7.02 µM); in the assay on E. coli (setting [6]), 6 µg/mL (≈ 14 µM). In addition, the MIC (e-test) was determined as 0.5 mg/L (≈ 1.17 µM) with Pasteurella (strain 14012, 5 mg cineol DMSO); 0.5 mg/L (≈ 1.17 µM) against Pasteurella (strain 14012, 5 mg cineol TE); 0.5 mg/L (≈ 1.17 µM) with Pasteurella (setting [7]); 0.38 mg/L (≈ 0.889 µM) in the assay on Pasteurella (setting [8]); 0.5 mg/L (≈ 1.17 µM) against Pasteurella (strain 14012, 10 mg cineol TE); 0.5 mg/L (≈ 1.17 µM) against Pasteurella (setting [9]). For the same compound, the MIC (e-test) stood at 0.5 mg/L (≈ 1.17 µM) against Pasteurella (strain 14012, DMSO control); 0.5 mg/L (≈ 1.17 µM) against Pasteurella (strain 14012, ED control); 0.75 mg/L (≈ 1.75 µM) against Pasteurella (strain 14012, TE control); 0.19 mg/L (≈ 0.444 µM) in the assay with Pasteurella (strain 14014, 5 mg cineol DMSO); 0.38 mg/L (≈ 0.889 µM) against Pasteurella (strain 14014, 5 mg cineol TE); 0.5 mg/L (≈ 1.17 µM) in the assay on Pasteurella (setting [10]). Besides, the MIC (e-test) amounted to 0.5 mg/L (≈ 1.17 µM) with Pasteurella (setting [11]); 0.38 mg/L (≈ 0.889 µM) in the assay on Pasteurella (strain 14014, 10 mg cineol TE); 0.38 mg/L (≈ 0.889 µM) in the assay with Pasteurella (setting [12]); 0.38 mg/L (≈ 0.889 µM) in the assay with Pasteurella (strain 14014, DMSO control); 0.38 mg/L (≈ 0.889 µM) in the assay with Pasteurella (strain 14014, ED Control); 0.5 mg/L (≈ 1.17 µM) with Pasteurella (strain 14014, TE control).

Regarding `O=C(O)c1cn(C2CC2)c2cc(N3CCNCC3)c(F)cc2c1=O` [Ciprofloxacin, ciprofloxacin], the “colonies likely to be resistant mutants” value in the assay with Strain 9003/BLSE is reported as “Numerous”; in the assay on Strain 10168/MRSA, “invaded”. Moreover, the MIC (e-test) against Pasteurella (strain 14012, 5 mg cineol DMSO) is 0.004 mg/L (≈ 0.0121 µM); against Pasteurella (strain 14012, 5 mg cineol TE) it was 0.004 mg/L (≈ 0.0121 µM); in the assay with Pasteurella (setting [7]), 0.003 mg/L (≈ 0.00905 µM); against Pasteurella (setting [8]), 0.004 mg/L (≈ 0.0121 µM); with Pasteurella (strain 14012, 10 mg cineol TE) it was 0.006 mg/L (≈ 0.0181 µM); against Pasteurella (setting [9]), 0.004 mg/L (≈ 0.0121 µM). Besides, the MIC (e-test) in the assay on Pasteurella (strain 14012, DMSO control) is 0.006 mg/L (≈ 0.0181 µM); against Pasteurella (strain 14012, ED control), 0.004 mg/L (≈ 0.0121 µM); with Pasteurella (strain 14012, TE control), 0.006 mg/L (≈ 0.0181 µM); in the assay on Pasteurella (strain 14013, 5 mg cineol DMSO), 0.012 mg/L (≈ 0.0362 µM); in the assay on Pasteurella (strain 14013, 5 mg cineol TE), 0.012 mg/L (≈ 0.0362 µM); against Pasteurella (strain 14013, 5 mg cineol water), 0.012 mg/L (≈ 0.0362 µM). For the same compound, the MIC (e-test) in the assay on Pasteurella (strain 14013, 10 mg cineol DMSO) turned out to be 0.012 mg/L (≈ 0.0362 µM); against Pasteurella (strain 14013, 10 mg cineol TE), 0.012 mg/L (≈ 0.0362 µM); in the assay on Pasteurella (strain 14013, 10 mg cineol water), 0.016 mg/L (≈ 0.0483 µM); against Pasteurella (strain 14013, DMSO control), 0.012 mg/L (≈ 0.0362 µM); with Pasteurella (strain 14013, ED control), 0.012 mg/L (≈ 0.0362 µM); in the assay with Pasteurella (strain 14013, TE control), 0.016 mg/L (≈ 0.0483 µM).

Turning to `CCC[C@@H]1C[C@@H](C(=O)N[C@@H]([C@H]2O[C@H](SC)[C@H](O)[C@@H](O)[C@H]2O)[C@H](C)Cl)N(C)C1` [Clindamycin], the MIC with Staphylococcus (Cineol 1 mg DMSO) amounted to 0.094 µg/mL (≈ 0.221 µM); in the assay with Staphylococcus (Cineol 1 mg Tween/water), 0.064 µg/mL (≈ 0.151 µM); with Staphylococcus (Cineol 4 mg DMSO), 0.064 µg/mL (≈ 0.151 µM); in the assay on Staphylococcus (Cineol 4 mg Tween/water) it was 0.064 µg/mL (≈ 0.151 µM); in the assay with Staphylococcus (Cineol 16 mg DMSO) it was 0.047 µg/mL (≈ 0.111 µM); in the assay with Staphylococcus (Cineol 16 mg Tween/water) it was 0.047 µg/mL (≈ 0.111 µM). Besides, the figures for the MIC with Staphylococcus (DMSO control (antibiotic alone)), in the assay with Staphylococcus (ED control (antibiotic alone in distilled water)) and with Staphylococcus (Tween water control (antibiotic alone)) were 0.064 µg/mL (≈ 0.151 µM), 0.094 µg/mL (≈ 0.221 µM) and 0.19 µg/mL (≈ 0.447 µM), respectively.

For the compound `C[C@@H](O)[C@H]1C(=O)N2C(C(=O)O)=C(S[C@@H]3CN[C@H](C(=O)N(C)C)C3)[C@H](C)[C@H]12` [Meropenem], the MIC in the assay with E. coli (Coli 8150, Cineol 1 mg DMSO) amounted to 0.064 µg/mL (≈ 0.167 µM); with E. coli (setting [1]) it was 0.064 µg/mL (≈ 0.167 µM); in the assay with E. coli (Coli 8150, Cineol 4 mg DMSO) it was 0.064 µg/mL (≈ 0.167 µM); with E. coli (setting [2]) it was 0.047 µg/mL (≈ 0.123 µM); with E. coli (Coli 8150, Cineol 16 mg DMSO), 0.064 µg/mL (≈ 0.167 µM); in the assay on E. coli (setting [3]) it was 0.1 µg/mL (≈ 0.261 µM). The values for the MIC in the assay with E. coli (setting [4]), with E. coli (setting [5]) and in the assay with E. coli (setting [6]) were 0.094 µg/mL (≈ 0.245 µM), 0.047 µg/mL (≈ 0.123 µM) and 0.094 µg/mL (≈ 0.245 µM), respectively. In addition, the MIC (e-test) against Pasteurella (strain 14012, 5 mg cineol DMSO) is 0.006 mg/L (≈ 0.0156 µM); against Pasteurella (strain 14012, 5 mg cineol TE), 0.008 mg/L (≈ 0.0209 µM); in the assay on Pasteurella (setting [7]), 0.006 mg/L (≈ 0.0156 µM); against Pasteurella (setting [8]), 0.006 mg/L (≈ 0.0156 µM); with Pasteurella (strain 14012, 10 mg cineol TE), 0.008 mg/L (≈ 0.0209 µM); with Pasteurella (setting [9]), 0.008 mg/L (≈ 0.0209 µM). The MIC (e-test) was 0.008 mg/L (≈ 0.0209 µM) with Pasteurella (strain 14012, DMSO control); 0.008 mg/L (≈ 0.0209 µM) in the assay on Pasteurella (strain 14012, ED control); 0.023 mg/L (≈ 0.06 µM) with Pasteurella (strain 14012, TE control); 0.012 mg/L (≈ 0.0313 µM) in the assay with Pasteurella (strain 14014, 5 mg cineol DMSO); 0.016 mg/L (≈ 0.0417 µM) against Pasteurella (strain 14014, 5 mg cineol TE); 0.016 mg/L (≈ 0.0417 µM) against Pasteurella (setting [10]). Moreover, the MIC (e-test) was determined as 0.016 mg/L (≈ 0.0417 µM) with Pasteurella (setting [11]); 0.012 mg/L (≈ 0.0313 µM) against Pasteurella (strain 14014, 10 mg cineol TE); 0.016 mg/L (≈ 0.0417 µM) in the assay with Pasteurella (setting [12]); 0.016 mg/L (≈ 0.0417 µM) against Pasteurella (strain 14014, DMSO control); 0.012 mg/L (≈ 0.0313 µM) against Pasteurella (strain 14014, ED Control); 0.012 mg/L (≈ 0.0313 µM) against Pasteurella (strain 14014, TE control).
